Like-named read-outs stand apart in the source and are kept apart here.
Legend:
VeroE6 cells = experiment: Cell viability assay (CellTiterGlo), VeroE6; type: cell-based, African green monkey
Protocol: (§1) The CellTiterGlo® luminescent assay (Promega Corporation, Madison, Wis., USA) was performed to detect the cytotoxicity of the selected compounds as previously described^39. Briefly, VeroE6 cells (4×10^4 cells per well) and Caco2 cells (4×10^4 cells per well) were incubated with different concentrations of the individual compound in 96-well plates for 48 hrs, followed by the addition of the substrate and measurement of luminance 10 min later. Ridaura and Au(PEt3)Cl were dissolved in DMSO, and the final percentage of DMSO was kept at 1% in culture medium.

SARS-CoV-2 M^pro [1] = biological target: T1, SARS-CoV-2 M^pro (Severe acute respiratory syndrome coronavirus 2, UniProt P0DTD1); experiment: Bi^3+ binding to M^pro (UV-vis kinetics and titration)
SARS-CoV-2 M^pro [2] = biological target: T1, SARS-CoV-2 M^pro; experiment: Ellman's assay of free cysteine; type: binding
Protocol: Amount of free cysteine was assayed spectrophotometrically with DTNB [5,5′-dithiobis-(2-nitrobenzoic acid)]according to a previously described method^(22). Briefly, SARS-CoV-2 M^pro (15 μM) was incubated with 0, 2, 5, 20 mol eq. […] Equal volume of DTNB (2 mM) was added to the reaction mix in a total reaction volume of 100 μL. After the incubation for 90 min, absorption of 412 nm which indicated the release of 5-thiobenzoate anion, was detected and converted into thiol concentrations using standard curves prepared with reduced glutathione (GSH) under identical condition. The assay was performed in triplicate and the results were plotted as the [free cysteine]/[M^pro] verse [Bi^3+]/[M^pro].

SARS-CoV-2 PL^pro [3] = biological target: T2, SARS-CoV-2 PL^pro (Severe acute respiratory syndrome coronavirus 2, UniProt P0DTD1); experiment: Zinc release assay (FluoZin-3); type: binding
Protocol: The release of Zn^2+ from SARS-CoV-2 PL^pro upon bismuth drug exposure was perform by a previously described method with zinc-specific fluorophore FluoZin™-3 (Invitrogen/Life Technologies) (21). Briefly, SARS-CoV-2 PLpro (20 μM) was incubated with 0, 2, 5, 20 mol eq. Bi^3+ (as CBS), for 180 min at room temperature, followed by the addition of FluoZin-3 (1 μM) in a total reaction volume of 100 μL (50 mM Tris-HCl, pH7.4) at room temperature. Fluorescence (λex=494 nm, λem=530 nm) was detected and converted into Zn^2+ concentrations using standard curves prepared from […] under identical condition. The signals of CBS at corresponding concentrations after mixing with FluoZin™-3 were recorded for background subtraction. The assay was performed in triplicate and the results were plotted as the [Zn^2+]/[PL^pro] verse [Bi^3+]/[PL^pro].

SARS-CoV-2 PL^pro [4] = biological target: T2, SARS-CoV-2 PL^pro; experiment: Bi^3+ binding to PL^pro (UV-vis kinetics and titration)
[5] = Chemical stability of bismuth drugs at different pH; conditions: data not shown; for effect of the thiol-containing drug on hydrolysis of CBS: acidic conditions
SARS-CoV-2 [6] = experiment: Viral load reduction assay in VeroE6 cells; type: cell-based
Protocol: Viral load reduction assay was performed on VeroE6 and Caco2 cells, as described previously with modifications^41. Supernatant samples from the infected cells (0.1 MOI) were harvested at 48 hours post-infection (hpi) for qRT-PCR analysis of virus replication. Briefly, 100 μL of viral supernatant were lyzed with 400 μL of AVL buffer and then extracted for total RNA with the QIAamp viral RNA mini kit (Qiagen, Hilden, Germany). Real-time one-step qRT-PCR was used for quantitation of SARS-CoV-2 viral load using the QuantiNova Probe RT-PCR kit (Qiagen) with a LightCycler 480 Real-Time PCR System (Roche) as previously described^15. Each […] mixture contained 10 μL of 2×QuantiNova Probe RT-PCR Master Mix, 1.2 μL of RNase-free water, 0.2 μL of QuantiNova Probe RT-Mix, 1.6 μL each of 10 μM forward and reverse primer, 0.4 μL of 10 μM probe, and 5 μL of extracted RNA as the template. Reactions were incubated at 45° C. for 10 min for reverse transcription, 95° C. for 5 min for denaturation, followed by 45 cycles of 95° C. for 5 s and 55° C. for 30 s. Signal detection and measurement were taken in each cycle after the annealing step. The cycling profile ended with a cooling step at 40° C. for 30 s. The primers and probe sequences are against the RNA-dependent RNA polymerase/Helicase (RdRP/Hel) gene region of SARS-Cov-2 previously described^42.
Cell culture supernatants were collected at 48 hour-post-infection (hpi) for viral RNA extraction and quantitative reverse transcription-polymerase chain reaction (qRT-PCR) as previously described with modifications(13, 14). The primers and probe sequences were against the RNA-dependent RNA polymerase/Helicase (RdRP/Hel) gene region of SARS-CoV-2: forward primer: 5′-[…]-3′ (SEQ ID NO:6); reverse primer: 5′-[…]-3′(SEQ ID NO:7); specific probe: 5′-[…]-IABkFQ-3′(SEQ ID NO:8). The viral load reduction assay experiments were performed in triplicate and repeated twice for confirmation.

SARS-CoV-2 [7] = experiment: Golden Syrian hamster model, oral treatment (NAC studies); type: in vivo
SARS-CoV-2 M^pro [8] = biological target: T1, SARS-CoV-2 M^pro; experiment: biochemical; type: biochemical
SARS-CoV-2 [9] = type: cell-based; conditions: 24 h, 1000 µM
SARS-CoV-2 PL^pro [10] = biological target: T2, SARS-CoV-2 PL^pro; experiment: PL^pro activity inhibition assay (FRET); type: biochemical
Caco2 cells = experiment: Cell viability assay (CellTiterGlo), Caco2; type: cell-based, human; conditions: Caco-2
Protocol: as §1

SARS-CoV-2 [11] = conditions: 0.1 MOI, 48 hpi, non-toxic concentrations
SARS-CoV-2 [12] = type: cell-based
SARS-CoV-2 [13] = type: cell-based; conditions: read-out: EC50 VeroE6
pseudo-SARS-CoV-2-Luc = type: cell-based
[14] = 48 hrs incubation, concentration based on metal content, read-out: CC50 VeroE6
[15] = 0.1 MOI, 48 hpi, non-toxic concentrations

CCP(CC)CC.[Au+].[Cl-] [Au(PEt3)Cl, chloro(triethylphosphine)gold(I)]
CC50 (VeroE6 cells; [14]): 13.5 ± 1.8 µM

[Bi+3] [Bi^3+]
molar ratio [Bi3+]/[SARS-CoV-2 Mpro] at plateau (SARS-CoV-2 M^pro [1]; absorption at 340 nm): ~1
Kd (SARS-CoV-2 M^pro [1]; read-out: estimated dissociation constant (Kd), M^pro): 0.6 µM
decrease of free cysteine in M^pro (SARS-CoV-2 M^pro [2]): ~1 eq.
Zn^2+ released from PL^pro (SARS-CoV-2 PL^pro [3]): ~0.78 eq.
molar ratio [Bi3+]/[SARS-CoV-2 PL^pro] at plateau (SARS-CoV-2 PL^pro [4]; absorption at 340 nm): ~3
Kd (SARS-CoV-2 PL^pro [4]; read-out: estimated dissociation constant (Kd), PL^pro): 1.13 µM

C[C@H](CS)C(=O)N1CCC[C@H]1C(=O)O [CPL, captopril]
effect of the thiol-containing drug on hydrolysis of CBS [5]: prevent hydrolysis of CBS

N[C@@H](CCC(=O)N[C@@H](CS)C(=O)NCC(=O)O)C(=O)O [GSH, glutathione]
effect of the thiol-containing drug on hydrolysis of CBS [5]: prevent hydrolysis of CBS

CC(=O)N[C@@H](CS)C(=O)O [NAC, N-acetyl cysteine]
anti-SARS-CoV-2 activity in Vero E6 culture supernatant (SARS-CoV-2 [6]; up to 2000 μM): negligible anti-SARS-CoV-2 activity
lung pathology (SARS-CoV-2 [7]; H&E): partially relieved lung pathology
pulmonary viral load compared with vehicle group (SARS-CoV-2 [7]; oral CBS 300 mg/kg or NAC 370 mg/kg, 2 dpi): No statistically significant difference
IC50 (SARS-CoV-2 M^pro [8]): > 450 µM
inhibition of M^pro at comparable concentrations (SARS-CoV-2 M^pro [8]): negligible inhibitory
viral NP antigen-positive cells (SARS-CoV-2 [9]): 59.75%
IC50 (SARS-CoV-2 PL^pro [10]): > 150 µM
inhibition of PL^pro at comparable concentrations (SARS-CoV-2 PL^pro [10]): negligible inhibitory

CC(C)(S)[C@@H](N)C(=O)O [PCM, penicillamine]
effect of the thiol-containing drug on hydrolysis of CBS [5]: prevent hydrolysis of CBS

CC[PH](CC)(CC)[Au][S][C@@H]1O[C@H](COC(C)=O)[C@@H](OC(C)=O)[C@H](OC(C)=O)[C@H]1OC(C)=O [Ridaura, Auranofin]
CC50 (VeroE6 cells; [14]): 14.2 ± 1.3 µM

O=C(O)c1ccccc1S [TSA, thiosalicylic acid]
effect of the thiol-containing drug on hydrolysis of CBS [5]: prevent hydrolysis of CBS

Bi(TPP) (TPP: tetraphenylporphyrinate)
CC50 (Caco2 cells): > 400 µM
maximal viral load reduction in Caco2 cell culture supernatant (SARS-CoV-2 [11]): ~3 logs
maximal viral load reduction in the Caco2 cell lysate (SARS-CoV-2 [11]): ~2 logs
maximal viral load reduction in VeroE6 cell culture supernatant (SARS-CoV-2 [6]; [15]): ~3 logs
maximal viral load reduction in the VeroE6 cell lysate (SARS-CoV-2 [6]; [15]): ~1 logs
effect on virus replication, drug maintained after virus entry (post-entry) (SARS-CoV-2 [12]; MOI=2, viral titer at 9 hpi): functioned at post-entry stages
EC50 (SARS-CoV-2 [13]; SARS-CoV-2 plaque reduction, concentration based on metal content): 3.9 ± 1.2 µM
CC50 (VeroE6 cells): > 400 µM

Bi(TPyP) (TPyP: tetra(4-pyridyl)porphyrin)
percent virus entry lowered (pseudo-SARS-CoV-2-Luc): ~53%
maximal viral load reduction in VeroE6 cell culture supernatant (SARS-CoV-2 [6]): ~3 logs
maximal viral load reduction in the VeroE6 cell lysate (SARS-CoV-2 [6]): ~1 logs
effect on virus replication, drug added during pre-incubation (cells pre-treatment) (SARS-CoV-2 [12]): significantly suppressed virus replication
effect on virus replication, drug added during virus co-infection (SARS-CoV-2 [12]): significantly suppressed virus replication
effect on virus replication, drug maintained after virus entry (post-entry) (SARS-CoV-2 [12]): no detectable effect
EC50 (SARS-CoV-2 [13]): 7.5 µM

bismuth subgallate [BSG]
stabilisation of the bismuth drug by NAC ([5]; low pH): stabilized

Source: US20230218663A1, “COMPOSITIONS AND METHODS FOR TREATING A SARS-COV-2 INFECTION” (priority 2020, published 2023)
